From PubChem BioAssay AID179 (DTP/NCI, 2004) come the findings set out here.

Active and inactive are the calls of the source.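 How the source made its calls: active means compounds giving half or more protection of infected cells from virus-caused growth loss, again on retest; inactive means the rest.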 Bounds are passed on as bounds.

In this assay the test system is CEM cells HIV-1 protection, formazan growth assay. Kind of assay: NCI AIDS Antiviral Assay. As to conditions: for IC50: measured here: growth of uninfected CEM cells. A digest of the protocol: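 Protection of CEM cells against HIV-1 was scored from cell growth (soluble formazan) across five concentrations, with parallel uninfected cells. Lack of protection may reflect toxicity.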

With `COc1c(OC(C)C)c(OC(C)C)c2oc(=O)n3c2c1C(c1ccccc1-n1c(C)ccc1C)C=C3` (configuration not stated), the EC50 was over 200 µM and the IC50 is over 200 µM.

`CSC1=N/C(=C\c2ccc(Cl)cc2)C(=O)N1CN1CCCCC1`: the EC50 was over 200 µM and the IC50 is over 200 µM.

With `C/C(CN1C(=O)c2ccccc2C1=O)=N\NS(=O)(=O)c1cccc(C(=O)O)c1`, the EC50 is over 309 µM and the IC50 is over 309 µM.

Take `Cn1c2c(c3ccccc31)C1C(=O)N(c3ccccc3)C(=O)C1CC2` (configuration not stated): the EC50 was over 57.5 µM and the 50% inhibitory concentration (IC50) was over 57.5 µM.

In the case of `O=C(Cn1c(=O)ccn(C2OC(CO)C(O)C2F)c1=O)c1ccc(F)cc1` (configuration not stated), the EC50 is over 200 µM and the IC50 is over 200 µM.

`CC(C)(C)NN=C1C(C)(C)C(=NNC(C)(C)C)C1(C)C`: the EC50 is over 316 µM and the IC50 is over 316 µM.

Take `COc1cc([C@H]2Oc3cc([C@H]4Oc5cc(O)cc(O)c5C(=O)[C@@H]4O)ccc3O[C@@H]2CO)ccc1O`: the EC50 was over 200 µM and the IC50 came out at 66.1 µM.

Consider `COc1cc(/C=C(\C#N)c2ccccc2)cc(OC)c1`, for which the EC50 is over 19.5 µM and the IC50 was over 19.5 µM.

Regarding `COc1ccc(C2OC(=O)c3c2ccc2ccccc32)c(C)c1` (configuration not stated), the EC50 was over 44.7 µM and the IC50 was 27.5 µM.

In the case of `CN(c1ccccc1)C1C(=O)N(c2ccccc2)C1/C=C/c1ccccc1` (configuration not stated), the outcome was inactive.

Turning to `Cc1c(C)c2ccc3oc4ccccc4c3c2oc1=O`, the EC50 was over 38 µM and the IC50 is over 38 µM.

Regarding `CC(C)(O)[C@@H]1CC[C@@]2(C)CCC[C@H](O)[C@H]2C1`, the outcome was inactive.

Regarding `N#Cc1c(-c2ccccc2)cc(-c2ccc(Cl)cc2)[nH]c1=S`, the EC50 is over 200 µM and the IC50 was 33.9 µM.

As to `COc1ccc([B-]23OCC[N+]2(CNC(=O)C2=C(O)C4(O)C(=O)C5=C(O)c6c(O)cccc6C(C)(O)C5CC4C(N(C)C)C2=O)CCO3)cc1` (configuration not stated), the EC50 is over 100 µM and the IC50 is 47.9 µM.

`CCOc1c(Cc2ccccc2)c(=O)n2c3ccccc3n3c(=O)n(C)c(=O)c1c23`: the EC50 is over 6.46 µM and the IC50 was over 6.46 µM.

Turning to `CC(CCCOC(c1ccccc1)(c1ccccc1)c1ccccc1)OC(=O)Nc1ccccc1` (configuration not stated), the EC50 was over 28.8 µM and the IC50 was over 28.8 µM.

On to `CC(=O)OCC1OC(n2c(C)c(C(C)=O)c(-c3cccc4ccccc34)c(C#N)c2=S)C(OC(C)=O)C(OC(C)=O)C1OC(C)=O` (configuration not stated), for which the EC50 is over 200 µM and the IC50 worked out at 112 µM.

Turning to `COC(=O)c1nc(-c2ccc(Cl)c(Cl)c2)nc2ccccc12`, the outcome was inactive.

`Cc1cc(Nc2ccc(S(=O)(=O)O)c3cc(S(=O)(=O)O)cc(S(=O)(=O)O)c23)c2ccccc2n1`: the EC50 was over 200 µM and the IC50 is over 200 µM.

With `COc1ccccc1N1CCN(CCc2c[nH]c3cc4c(cc23)OCO4)CC1`, the EC50 is over 132 µM and the IC50 came to 7.41 µM.

As to `CN1C(=O)C2CSCN2C1=S` (configuration not stated), the EC50 was over 955 µM and the IC50 worked out at 316 µM.

Take `Cc1c([N+](=O)[O-])oc2c1C(=O)NCCC2`: the EC50 is over 437 µM and the 50% inhibitory concentration (IC50) is 70.8 µM.

Turning to `COc1cc(Nc2nc3ccccc3nc2C(=O)O)cc(OC)c1OC`, the EC50 was over 200 µM and the 50% inhibitory concentration (IC50) came out at 8.91 µM.

Take `O=C1C2C3C=C4c5ccccc5N(c5ccccc5)C4(C2C(=O)N1c1ccc([N+](=O)[O-])cc1)[C@H]1C(=O)N(c2ccc([N+](=O)[O-])cc2)C(=O)[C@@H]31` (some centres not stated): the EC50 was over 11 µM and the IC50 was over 11 µM.

`CCN1CCC(O)(/C=C/c2ccc(Cl)c(Cl)c2)C(C(=O)/C=C/c2ccc(Cl)c(Cl)c2)C1` (configuration not stated): the EC50 is over 25.1 µM and the IC50 was 0.513 µM.

With `Cc1c(N=Nc2ccccc2)c(C)n(C2OC(CO)C(O)C(O)C2O)c(=S)c1C#N` (configuration not stated), the EC50 is over 200 µM and the IC50 was 22.9 µM.

Regarding `NC12CC3CC(CC(C3)C1)C2`, the EC50 is over 200 µM, the outcome was inactive and the IC50 is over 200 µM.

Consider `COc1ccc2c(c1OC)C13CCCC[C@H]1C(C2)[N+](C)(C)CC3` (some centres not stated), for which the EC50 was over 562 µM and the IC50 was over 562 µM.

As to `Cc1nc([N+](=O)[O-])cn1CC(=N)N`, the EC50 was over 1120 µM and the IC50 was over 1120 µM.

In the case of `CC1OS(=O)(=O)CS(=O)(=O)OC1C` (configuration not stated), the EC50 was over 1070 µM and the IC50 is 1020 µM.

Consider `Nc1c(S(=O)(=O)O)[nH]c(=O)[nH]c1=O`, for which the EC50 is over 200 µM and the IC50 was over 200 µM.

For `C[C@]12CCCCC1(O)C[C@H](C(=O)O)CC2` (some centres not stated), the outcome was inactive.

In the case of `CC1=C(C(=O)Nc2ccc(C)cc2)C(c2cccc([N+](=O)[O-])c2)C(C(=O)Nc2ccc(C)cc2)=C(C)N1`, the EC50 was over 14.5 µM and the half-inhibitory concentration (IC50) was over 14.5 µM.

On to `CCN(CC)c1ccc2cc(-c3nc4ccccc4[nH]3)c(=O)oc2c1`, for which the EC50 was over 7.76 µM and the IC50 is over 7.76 µM.

For the compound `OCCNCCNc1c2ccccc2nc2cc(Cl)ccc12`, the result was inactive.

Consider `COc1ccc(C(=O)C(c2ccc(OC)cc2)C2OC(=O)C(Cl)=C2Cl)cc1` (configuration not stated), for which the EC50 was over 17.8 µM and the IC50 is over 17.8 µM.

For `O=C(O)P(=O)(O)O`, the EC50 was over 7940 µM and the IC50 turned out to be 5750 µM.

Consider `COc1ccc2c(C)cc(=O)oc2c1`, for which the EC50 was over 200 µM and the IC50 was over 200 µM.

`O=S1(=O)c2ccccc2C(O)(c2ccccc2)c2cc3ccccc3n21` (configuration not stated): the EC50 was over 27.5 µM and the IC50 is over 27.5 µM.

Take `COC1=CC2=C3[C@H](Cc4cc5c(c(c4)Oc4ccc(cc4)C[C@@H]4c6cc7c(cc6CCN4C)OC[C@]3(O7)C1=O)OCO5)N(C)CC2`: the outcome was inactive.

As for `CC(C)N1CC(=O)N2CSCC2C1=O` (configuration not stated), the EC50 is over 200 µM and the IC50 was over 200 µM.

Regarding `Cn1c(=O)cc(NCCc2ccccc2)[nH]c1=O`, the EC50 was over 200 µM and the IC50 amounted to 17.4 µM.

`O=C(O)c1ccccc1Sc1ccc(C=C2NC(=S)N(c3ccccc3)C2=O)s1`: the EC50 was over 200 µM and the IC50 was 97.7 µM.

For the compound `CC(C)CN1CN(c2ccccc2)C2(CCN(CC(C)(c3ccc(F)cc3)C3OCCO3)CC2)C1=O` (configuration not stated), the EC50 was over 100 µM and the IC50 amounted to 12.6 µM.

Consider `CC1(C)OC(=O)C(=C2CC(c3ccccc3)c3ccccc32)C(=O)O1` (configuration not stated), for which the outcome was inactive.

As to `COc1ccc2nc3n(c2c1)C(c1c(Cl)cccc1Cl)SC3` (configuration not stated), the EC50 is over 200 µM and the IC50 was over 200 µM.

In the case of `CC12C(=O)N(CCN)C(=O)C1C1c3ccccc3C2c2ccccc21` (configuration not stated), the outcome was inactive.

On to `COc1cc2cc(C(=O)N3CC(CCl)c4c3cc([N+](C)(C)Cc3ccc([N+](=O)[O-])n3C)c3ccccc43)[nH]c2c(OC)c1OC` (configuration not stated), for which the EC50 was over 2 µM and the IC50 worked out at 1.26 µM.

Consider `CN(C)c1ccc(C2SCC(=O)N2NS(=O)(=O)c2cccc(C(=O)O)c2)cc1` (configuration not stated), for which the EC50 was over 200 µM and the half-maximal inhibitory concentration (IC50) worked out at 79.4 µM.

In the case of `COc1nc2nccnc2c(=O)n1C`, the EC50 was over 200 µM and the IC50 is over 200 µM.

As to `CC(C)C(/C=C/c1ccc(Cl)cc1)=N\NC(=S)NN`, the EC50 was over 200 µM and the IC50 came out at 12 µM.

`CN/N=C(/CC(=O)c1sc(-n2nc(-c3ccccc3)cc2-c2ccccc2)nc1C)C(=O)Nc1ccc(Cl)c(Cl)c1`: the EC50 was over 112 µM and the IC50 is over 112 µM.

Turning to `CC1(C)CNC[C@@]2(C)OCCOCCOCCO[C@@]3(C)CNCC(C)(C)NC(=O)[C@](C)(CNCC(C)(C)NC3=O)OCCOCCOCCO[C@](C)(CNCC(C)(C)NC2=O)C(=O)N1`, the EC50 is over 200 µM and the IC50 is over 200 µM.

Consider `C[S+](C)CC(=O)c1ccc2c(c1)Sc1ccccc1O2`, for which the EC50 is over 100 µM and the IC50 amounted to 2.04 µM.

As to `c1ccc2c(c1)c1c(n2CCOCCN2CCOCC2)CCCC1`, the EC50 was over 200 µM and the IC50 came out at 112 µM.

As for `COC1(OC)c2no[n+]([O-])c2C(OC)(OC)c2c1no[n+]2[O-]`, the EC50 was over 200 µM and the IC50 amounted to 3.89 µM.

In the case of `N#Cc1ccc(S(=O)(=O)c2ccc(C#N)cc2)cc1`, the EC50 was over 200 µM and the IC50 is over 200 µM.

For the compound `CCCC1(CC(=O)O)OCCc2c1[nH]c1ccccc21` (configuration not stated), the EC50 is over 912 µM and the IC50 turned out to be 457 µM.

On to `COC(=O)C1=C(CO)C2C=CC1C2` (configuration not stated), for which the result was inactive.

With `C/C=C\CCC1CCCCN(C(=O)OC(C)(C)C)C1OCC` (configuration not stated), the EC50 was over 158 µM and the IC50 is over 158 µM.

Consider `O=C1CS(=O)c2ccccc2N1` (configuration not stated), for which the EC50 was over 372 µM and the IC50 is over 372 µM.

With `O=C1C(=Nc2ccc(Nc3ccccc3)cc2)Oc2ccccc21`, the EC50 was over 200 µM and the concentration for half-maximal inhibition (IC50) was 3.09 µM.

Take `CC(C)=CCC[C@@H](C)[C@H]1CC[C@@]2(C)[C@@H]3CC[C@H]4C(C)(C)[C@@H](O)CC[C@@]45C[C@@]35CC[C@]12C`: the EC50 was over 200 µM and the IC50 came to 126 µM.

Take `O=C1[C@H]2CCCC[C@H]2C(=O)N1N1C(=O)[C@H]2CCCC[C@H]2C1=O`: the result was inactive.

Regarding `COc1ccc(/C=C2\Cc3ccccc3C2=O)cc1OC`, the EC50 was over 35.5 µM and the IC50 was over 35.5 µM.

As to `O=CN(SSN(C=O)C1CCCCC1)C1CCCCC1`, the outcome was inactive.

Consider `CC1(O)CCC2(CCC(C)(O)CC2=O)C(=O)C1` (configuration not stated), for which the EC50 is over 200 µM and the IC50 was over 200 µM.

In the case of `CCCCCCCC/C=C\CCCCCCCC(=O)NCCN(CCN)C(=O)CCCCCCC/C=C\CCCCCCCC`, the EC50 was over 25.1 µM and the IC50 is over 25.1 µM.

Turning to `C=C(C(=C)N1N=NC2C3CCC(C3)C21)N1N=NC2C3CCC(C3)C21` (configuration not stated), the EC50 is over 2.34 µM and the IC50 is over 2.34 µM.

In the case of `Cc1cc2nc3n[nH]c(N)c3nc2cc1C`, the EC50 is over 200 µM and the IC50 was over 200 µM.

Take `CCCCCCCCCc1cc(-c2ccc(C=O)s2)sc1-c1ccc(C=O)s1`: the EC50 was over 200 µM and the IC50 amounted to 2.75 µM.
